Reference: publication PMC8342458, “GluN2A and GluN2B NMDA receptors use distinct allosteric routes” (Nature Communications, 2021)
“And” between values parts separate entries of the source, which are not always exact repeats. Equal entries are not always repeated. Where two headings read alike, the source gives them in different places.

Legend:
[1] = target: T1, GluN1-N512C-L777C/GluN2B-E517C-L781C receptors (UniProt P35439+Q01097, E517C/L777C/L781C/N521C); test: TEVC recordings in Xenopus oocytes, zinc and ifenprodil inhibition dose-response; format: cell-based, rat (GluN1), mouse (GluN2B)
T1 construct: For full-length multimeric membrane-embedded receptors studied in cellulo, as done in the present work; expressed in transfected cells; host or cells: Xenopus laevis oocytes
Procedure: (§1) The pcDNA3-based expression plasmids for rat GluN1-1a (named GluN1 herein), rat GluN2A, and mouse GluN2B (also known as ε2) subunits, Pfu-based site-directed mutagenesis strategy, and sequencing procedure have been described previously[68],[69]. Incorporation of the unnatural amino acids (UAAs) AzF and BzF into NMDARs was performed using the genetic code expansion methodology as previously described[52],[53],[83]. The plasmid pSVB.Yam carrying the gene encoding the amber suppressor tRNA derived from B. stearothermophilus Tyr-tRNACUA, while the aminoacyl-tRNA synthetases (aaRS) construction for AzF and BzF derived from E. coli TyrRS[84],[85].
(§2) Recombinant NMDARs were expressed in Xenopus laevis oocytes after nuclear injection of 36 nl of a mixture of cDNAs (at 10–30 ng/μl) encoding various GluN1 and GluN2 subunits (ratio 1:1). Oocytes were prepared, injected, incubated, and voltage-clamped as described previously. For UAA incorporation, oocytes were co-injected with 36 nl of a cDNA mixture encoding for of GluN1, GluN2, Yam, and aaRS as follows, unless otherwise indicated in the text: GluN1-K178amber (120 ng/μl), GluN2A (80 ng/µl) or GluN2B (120 ng/μl), Yam (10 ng/μl), AzF-RS (5 ng/μl). After injection, oocytes were incubated at 19 °C in a Barth solution containing (in mM) 88 NaCl, 1 KCl, 0.33 Ca(NO3)2, 0.41 CaCl2, 0.82 MgSO4, 2.4 NaHCO3, 10 HEPES (pH adjusted to 7.6 with NaOH) supplemented with gentamicin ([…]) and the NMDAR glutamate binding site competitive antagonist D-APV (50 μM). AzF and BzF were added to the incubation medium at final concentrations of 1 mM and 2 mM, respectively.
(§3) For all experiments, except those on pH and spermine sensitivity, the standard external solution contained (in mM): 100 NaCl, 0.3 BaCl2, and 5 HEPES (pH adjusted to 7.3 with KOH). […] For the pH and spermine sensitivity experiments, an external solution enriched in HEPES was used to insure proper pH buffering. Unless otherwise mentioned, NMDAR-mediated currents were induced by simultaneously applications of saturating concentrations of glutamate and glycine (100 μM each). Glutamate and glycine dose-response curves (DRC) were performed in the presence of 100 µM glycine and 100 µM glutamate, respectively. Recordings were performed at a holding potential of −60 mV and at room temperature. Data were collected and analyzed using Clampex 10.5 and Clampfit 10.5 (Molecular Devices), respectively, and fitted using KaleidaGraph 4.0 (Synergy software).
(§4) EC50 and nH were fitted as free parameters. […] For proton DRC, corrections for small shifts in the reference potential of bath electrodes and analysis of the data were performed as previously described. Spermine experiments were performed and analyzed as previously described. In brief, spermine sensitivity was assessed at pH 6.5 and at a holding potential of −30 mV to maximize the spermine induced potentiation. […] EC50, a and nH were set as free parameters. MK-801 is an NMDAR open channel blocker with slow reversibility and, consequently, the rate at which MK-801 inhibits NMDAR responses depends on the level of channel activity, that is, channel open probability (Po). Based on this principle, MK-801 is classically used to estimate the level of NMDAR channel activity in macroscopic whole-cell recordings[36],[47],[56],[86],[87]. Note, however, that MK- 801 inhibition kinetics can index relative, not absolute, Po. MK-801 solutions (10 nM for GluN2A-containing receptors and 50 nM for GluN2B-containing receptors) were prepared by dilution of a stock solution (50 mM) into the agonist containing solutions. MK-801 time constants of inhibition (τon) were obtained by fitting currents with a single-exponential component to a time window corresponding to 10–90% of maximum inhibition. On-rate (kon) constants were then calculated assuming a pseudo first-order reaction scheme: kon = 1 / ([MK-801]*τon).

[2] = target: T2, wild-type (wt) GluN1/GluN2A receptors (Rattus norvegicus, UniProt P35439+Q00959); test: TEVC recordings in Xenopus oocytes, allosteric modulator sensitivity; format: cell-based; conditions: for Izn/Io 1 nM: 1 nM zinc; for Izn/Io 10 nM: 10 nM zinc; for Izn/Io 50 nM: 50 nM zinc; for Izn/Io 500 nM: 500 nM zinc; for Izn/Io 1000 nM: 1000 nM zinc
T2 construct: For full-length multimeric membrane-embedded receptors studied in cellulo, as done in the present work; expressed in transfected cells; host or cells: Xenopus laevis oocytes (nuclear cDNA injection, pcDNA3 plasmids)
T2 sequence (Q00959 23-1464, other chains not shown): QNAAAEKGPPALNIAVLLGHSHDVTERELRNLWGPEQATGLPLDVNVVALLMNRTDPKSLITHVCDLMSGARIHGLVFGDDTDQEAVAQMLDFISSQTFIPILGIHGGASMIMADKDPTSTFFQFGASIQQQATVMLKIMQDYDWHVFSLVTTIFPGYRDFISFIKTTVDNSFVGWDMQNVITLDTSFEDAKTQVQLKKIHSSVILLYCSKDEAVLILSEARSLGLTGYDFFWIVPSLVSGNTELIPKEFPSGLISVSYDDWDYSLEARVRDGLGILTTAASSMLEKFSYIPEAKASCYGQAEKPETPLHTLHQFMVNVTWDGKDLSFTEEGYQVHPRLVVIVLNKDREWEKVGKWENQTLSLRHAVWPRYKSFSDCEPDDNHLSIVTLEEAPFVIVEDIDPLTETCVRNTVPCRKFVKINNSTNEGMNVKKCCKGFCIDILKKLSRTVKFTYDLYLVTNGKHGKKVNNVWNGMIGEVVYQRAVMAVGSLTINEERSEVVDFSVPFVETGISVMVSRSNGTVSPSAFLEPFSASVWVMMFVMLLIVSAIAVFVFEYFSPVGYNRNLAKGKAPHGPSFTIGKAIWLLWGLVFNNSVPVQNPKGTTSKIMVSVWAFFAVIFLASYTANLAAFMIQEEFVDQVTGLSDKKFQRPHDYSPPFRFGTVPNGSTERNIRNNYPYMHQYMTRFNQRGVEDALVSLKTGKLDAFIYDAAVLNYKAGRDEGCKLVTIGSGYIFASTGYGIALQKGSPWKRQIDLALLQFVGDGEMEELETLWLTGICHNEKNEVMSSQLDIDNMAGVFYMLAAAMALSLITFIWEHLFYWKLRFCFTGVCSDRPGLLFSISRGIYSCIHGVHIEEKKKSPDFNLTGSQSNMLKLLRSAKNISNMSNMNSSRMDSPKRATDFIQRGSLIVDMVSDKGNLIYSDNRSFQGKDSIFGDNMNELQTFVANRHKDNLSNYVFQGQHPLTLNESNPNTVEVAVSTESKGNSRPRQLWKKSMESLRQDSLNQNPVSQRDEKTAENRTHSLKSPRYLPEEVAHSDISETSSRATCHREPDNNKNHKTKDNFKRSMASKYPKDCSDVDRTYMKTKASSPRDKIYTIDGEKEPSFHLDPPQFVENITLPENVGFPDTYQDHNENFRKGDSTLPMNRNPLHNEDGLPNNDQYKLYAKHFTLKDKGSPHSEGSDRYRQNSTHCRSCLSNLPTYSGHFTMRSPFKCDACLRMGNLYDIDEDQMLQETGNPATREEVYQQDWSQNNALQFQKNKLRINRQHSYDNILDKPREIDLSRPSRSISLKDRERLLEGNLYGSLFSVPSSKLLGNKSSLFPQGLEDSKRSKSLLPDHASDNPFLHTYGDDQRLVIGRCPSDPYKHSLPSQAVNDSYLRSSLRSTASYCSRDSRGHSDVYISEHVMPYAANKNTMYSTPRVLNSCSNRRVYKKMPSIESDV
Procedure: as §1, §2, §3, §4

[3] = target: T3, GluN1-N521C-L777C/GluN2A-E516C-L780C (CC/CC) receptors (Rattus norvegicus, UniProt P35439+Q00959, E516C/L777C/L780C/N521C); test: TEVC recordings in Xenopus oocytes, zinc sensitivity; format: cell-based
T3 construct: For full-length multimeric membrane-embedded receptors studied in cellulo, as done in the present work; expressed in transfected cells; host or cells: Xenopus laevis oocytes
T3 sequence (Q00959 23-1464 E516C/L780C, other chains not shown): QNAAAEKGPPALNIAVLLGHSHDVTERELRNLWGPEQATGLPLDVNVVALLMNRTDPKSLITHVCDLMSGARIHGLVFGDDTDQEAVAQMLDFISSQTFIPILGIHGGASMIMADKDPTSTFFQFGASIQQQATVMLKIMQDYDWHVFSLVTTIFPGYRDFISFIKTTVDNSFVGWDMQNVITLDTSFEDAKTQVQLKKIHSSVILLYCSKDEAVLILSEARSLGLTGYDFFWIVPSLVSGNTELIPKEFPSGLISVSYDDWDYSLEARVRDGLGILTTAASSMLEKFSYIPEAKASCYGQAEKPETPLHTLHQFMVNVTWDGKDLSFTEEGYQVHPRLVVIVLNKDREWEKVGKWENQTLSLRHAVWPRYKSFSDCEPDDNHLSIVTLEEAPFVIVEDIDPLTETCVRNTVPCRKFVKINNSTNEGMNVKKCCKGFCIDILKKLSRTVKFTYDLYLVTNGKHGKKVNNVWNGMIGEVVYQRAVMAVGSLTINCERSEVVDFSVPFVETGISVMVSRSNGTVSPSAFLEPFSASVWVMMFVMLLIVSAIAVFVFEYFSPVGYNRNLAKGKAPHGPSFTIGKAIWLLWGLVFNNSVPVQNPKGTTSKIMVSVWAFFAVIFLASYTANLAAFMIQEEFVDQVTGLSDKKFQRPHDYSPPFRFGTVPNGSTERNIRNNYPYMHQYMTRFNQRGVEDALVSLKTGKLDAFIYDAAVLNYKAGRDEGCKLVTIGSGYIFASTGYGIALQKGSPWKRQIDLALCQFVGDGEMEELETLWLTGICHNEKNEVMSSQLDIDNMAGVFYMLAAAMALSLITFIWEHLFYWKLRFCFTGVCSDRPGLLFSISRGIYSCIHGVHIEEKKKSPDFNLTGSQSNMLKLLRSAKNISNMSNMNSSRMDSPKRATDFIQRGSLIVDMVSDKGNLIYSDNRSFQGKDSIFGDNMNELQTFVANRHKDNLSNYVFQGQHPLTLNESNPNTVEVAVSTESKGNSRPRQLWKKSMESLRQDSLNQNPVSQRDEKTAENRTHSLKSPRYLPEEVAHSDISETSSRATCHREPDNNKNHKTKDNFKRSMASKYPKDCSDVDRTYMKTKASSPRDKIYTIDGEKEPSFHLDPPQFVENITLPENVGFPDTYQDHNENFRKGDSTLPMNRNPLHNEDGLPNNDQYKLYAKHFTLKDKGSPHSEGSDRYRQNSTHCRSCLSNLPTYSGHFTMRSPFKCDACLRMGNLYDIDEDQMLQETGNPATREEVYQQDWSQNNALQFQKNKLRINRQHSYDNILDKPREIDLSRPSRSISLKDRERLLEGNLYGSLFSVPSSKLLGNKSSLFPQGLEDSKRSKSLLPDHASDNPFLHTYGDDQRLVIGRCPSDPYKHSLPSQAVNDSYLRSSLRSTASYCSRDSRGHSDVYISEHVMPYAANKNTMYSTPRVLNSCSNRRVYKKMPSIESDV
Procedure: as §1, §2, §3, §4

[4] = target: T4, GluN1-K178AzF/GluN2A receptors (Rattus norvegicus, UniProt P35439+Q00959); test: TEVC recordings in Xenopus oocytes, modulator sensitivity before and after UV photocrosslinking; format: cell-based; conditions: read-out: Zn2+ IC50
T4 construct: For full-length multimeric membrane-embedded receptors studied in cellulo, as done in the present work; expressed in transfected cells; host or cells: Xenopus laevis oocytes, co-injected with amber suppressor tRNA (Yam) and AzF-RS
Procedure: as §1, §2, §3, §4

[5] = target: T5, GluN1-K178AzF/GluN2A receptors (Rattus norvegicus, UniProt P35439+Q00959, K178F); test: as above; format: cell-based; conditions: for Izn/Io 1 nM: 1 nM zinc; for Izn/Io 10 nM: 10 nM zinc; for Izn/Io 1000 nM: 1000 nM zinc
T5 construct: For full-length multimeric membrane-embedded receptors studied in cellulo, as done in the present work; expressed in transfected cells; host or cells: Xenopus laevis oocytes, co-injected with amber suppressor tRNA (Yam) and AzF-RS
T5 sequence (Q00959 23-1464, other chains not shown): as the sequence (Q00959 23-1464, other chains not shown) above
Procedure: as §1, §2, §3, §4

## [Zn+2] [zinc]
[1]
  Zn2+ Hill slope (nH): 0.88 ± 0.05
[1]; 0.1 μM zinc
  Izn/Io 0.1 μM: 0.78 ± 0.07
[1]; 0.3 μM zinc
  Izn/Io 0.3 μM: 0.60 ± 0.03
[1]; 1 μM zinc
  Izn/Io 1 μM: 0.40 ± 0.03
[1]; 3 μM zinc
  Izn/Io 3 μM: 0.23 ± 0.03
[1]; 10 μM zinc
  Izn/Io 10 μM: 0.10 ± 0.03
[2]
  Zn2+ Hill slope (nH): 0.64 ± 0.10 and 0.70 ± 0.03 and 0.77 ± 0.05
  Izn/Io 1 nM: 0.90 ± 0.01 and 0.90 ± 0.05 and 0.86 ± 0.08
  Izn/Io 10 nM: 0.68 ± 0.01 and 0.68 ± 0.04 and 0.68 ± 0.07
  Izn/Io 50 nM: 0.45 ± 0.02 and 0.45 ± 0.05
  Izn/Io 500 nM: 0.31 ± 0.02 and 0.33 ± 0.04
  Izn/Io 1000 nM: 0.30 ± 0.06 and 0.28 ± 0.04 and 0.30 ± 0.03
[2]; +GNE (100 µM GNE-3419)
  Izn/Io 1 nM: 0.97 ± 0.02
  Izn/Io 10 nM: 0.88 ± 0.05
  Izn/Io 50 nM: 0.76 ± 0.08
  Izn/Io 500 nM: 0.65 ± 0.07
  Izn/Io 1000 nM: 0.58 ± 0.02
[2]; fraction
  Zn2+ maximal inhibition: 0.74 ± 0.05
[2]; in the presence of 100 µM GNE-3419
  Zn2+ Hill slope (nH): 0.62 ± 0.17
[2]; read-out: Zn2+ IC50
  IC50: 12 nM and 15.3 nM and 13 nM
[3]
  Zn2+ Hill slope (nH): 0.40 ± 0.11
  Zn2+ maximal inhibition: 0.37 ± 0.04
[3]; 1 nM zinc
  Izn/Io 1 nM: 0.86 ± 0.01
[3]; 5 nM zinc
  Izn/Io 5 nM: 0.81 ± 0.02
[3]; 50 nM zinc
  Izn/Io 50 nM: 0.72 ± 0.03
[3]; 500 nM zinc
  Izn/Io 500 nM: 0.66 ± 0.04
[3]; 1000 nM zinc
  Izn/Io 1000 nM: 0.68 ± 0.01
[3]; read-out: Zn2+ IC50
  IC50: 3.44 ± 2.03 nM
[4]; after UV
  IC50: 7.69 ± 0.17 nM
[4]; before UV
  IC50: 7.43 ± 1.1 nM
[5]; +UV
  Izn/Io 1 nM: 0.94 ± 0.01
  Izn/Io 10 nM: 0.70 ± 0.02
  Izn/Io 1000 nM: 0.48 ± 0.04
[5]; -UV
  Izn/Io 1 nM: 0.91 ± 0.02
  Izn/Io 10 nM: 0.60 ± 0.01
  Izn/Io 1000 nM: 0.30 ± 0.03
[5]; after UV
  Zn2+ Hill slope (nH): 1.05 ± 0.07
  Zn2+ maximal inhibition: 0.52 ± 0.04
[5]; before UV
  Zn2+ Hill slope (nH): 0.99 ± 0.09
  Zn2+ maximal inhibition: 0.70 ± 0.03
